Results as given in ChEMBL document CHEMBL4219066, “Identification and Mitigation of Reactive Metabolites of 2-Aminoimidazole-Containing Microsomal Prostaglandin E Synthase-1 Inhibitors Terminated Due to Clinical Drug-Induced Liver Injury” (J Med Chem, 2018).

Experiments:
[1] = In vivo drug metabolism in human urine assessed as 2-chloro-N-(4-hydroxy-1H-imidazol-2-yl)-5-(pivalamidomethyl)benzamide formation by HPLC-MS analysis; type: ADME, organism-based
[2] = Drug metabolism in rat hepatocytes assessed as 2-chloro-5-((3-hydroxy-2,2-dimethylpropanamido)methyl)-N-(1H-imidazol-2-yl)benzamide formation at 2 uM after 4 hrs by LC-MS/MS analysis; type: ADME, cell-based, Hepatocyte
[3] = In vivo drug metabolism in human urine assessed as (R)-2-amino-3-((2-(2-chloro-5-(pivalamidomethyl)benzamido)-1H-imidazol-5-yl)disulfanyl)propanoic acid formation by HPLC-MS analysis; type: ADME, organism-based
[4] = In vivo drug metabolism in human plasma assessed as 2-chloro-N-(4-hydroxy-1H-imidazol-2-yl)-5-(pivalamidomethyl)benzamide formation HPLC-MS analysis; type: ADME, organism-based
[5] = Drug metabolism in Sprague-Dawley rat plasma assessed as N-carbamimidoyl-2-chloro-5-(pivalamidomethyl)benzamide formation at 1000 mg/kg, po measured after 2 hrs post dose by LC/MS analysis; type: ADME, organism-based; conditions: in vivo
[6] = Drug metabolism in human liver microsomes assessed as N-(6-oxa-2,4-diazabicyclo[3.1.0]hex-3-en-3-yl)-2-chloro-5-(pivalamidomethyl)benzamide formation at 2 uM in presence of 1:1 ratio of unlabeled GSH and [glycine 13C2,15N]-labelled GSH after 0.5 hrs by HPLC-MS analysis; type: ADME, microsome
[7] = Drug metabolism in Beagle dog plasma assessed as N-(6-oxa-2,4-diazabicyclo[3.1.0]hex-3-en-3-yl)-2-chloro-5-(pivalamidomethyl)benzamide formation at 300 to 600 mg/kg, po measured after 2 hrs post dose by LC/MS analysis; type: ADME, organism-based, Canis lupus familiaris; conditions: in vivo
[8] = Drug metabolism in Beagle dog plasma assessed as 2-chloro-N-(4,5-dihydroxy-4,5-dihydro-1H-imidazol-2-yl)-5-(pivalamidomethyl)benzamide formation at 300 to 600 mg/kg, po measured after 2 hrs post dose by LC/MS analysis; type: ADME, organism-based, Canis lupus familiaris; conditions: in vivo
[9] = In vivo drug metabolism in human urine assessed as N-carbamimidoyl-2-chloro-5-((3-hydroxy-2,2-dimethylpropanamido)methyl)benzamide formation by HPLC-MS analysis; type: ADME, organism-based
[10] = Drug metabolism in Sprague-Dawley rat plasma assessed as N-(6-oxa-2,4-diazabicyclo[3.1.0]hex-3-en-3-yl)-2-chloro-5-(pivalamidomethyl)benzamide formation at 1000 mg/kg, po measured after 2 hrs post dose by LC/MS analysis; type: ADME, organism-based; conditions: in vivo
[11] = Drug metabolism in human hepatocytes assessed as N-(6-oxa-2,4-diazabicyclo[3.1.0]hex-3-en-3-yl)-2-chloro-5-(pivalamidomethyl)benzamide formation at 2 uM after 4 hrs by LC-MS/MS analysis; type: ADME, cell-based, Hepatocyte
[12] = Drug metabolism in dog hepatocytes assessed as 2-chloro-N-(4,5-dihydroxy-4,5-dihydro-1H-imidazol-2-yl)-5-(pivalamidomethyl)benzamide formation at 2 uM after 4 hrs by LC-MS/MS analysis; type: ADME, cell-based, Canis lupus familiaris, Hepatocyte
[13] = Drug metabolism in Beagle dog plasma assessed as N-carbamimidoyl-2-chloro-5-(pivalamidomethyl)benzamide formation at 300 to 600 mg/kg, po measured after 2 hrs post dose by LC/MS analysis; type: ADME, organism-based, Canis lupus familiaris; conditions: in vivo
[14] = Drug metabolism in dog hepatocytes assessed as 2-chloro-N-(4-hydroxy-1H-imidazol-2-yl)-5-(pivalamidomethyl)benzamide formation at 2 uM after 4 hrs by LC-MS/MS analysis; type: ADME, cell-based, Canis lupus familiaris, Hepatocyte
[15] = In vivo drug metabolism in human urine assessed as 2-chloro-N-(4,5-dihydroxy-4,5-dihydro-1H-imidazol-2-yl)-5-(pivalamidomethyl)benzamide formation by HPLC-MS analysis; type: ADME, organism-based
[16] = Drug metabolism in Beagle dog plasma assessed as 2-chloro-5-(pivalamidomethyl)benzoic acid formation at 300 to 600 mg/kg, po measured after 2 hrs post dose by LC/MS analysis; type: ADME, organism-based, Canis lupus familiaris; conditions: in vivo
[17] = Drug metabolism in Sprague-Dawley rat plasma assessed as 5-(aminomethyl)-2-chloro-N-(1H-imidazol-2-yl)benzamide formation at 1000 mg/kg, po measured after 2 hrs post dose by LC/MS analysis; type: ADME, organism-based; conditions: in vivo
[18] = Drug metabolism in rat hepatocytes assessed as N-(6-oxa-2,4-diazabicyclo[3.1.0]hex-3-en-3-yl)-2-chloro-5-(pivalamidomethyl)benzamide formation at 2 uM after 4 hrs by LC-MS/MS analysis; type: ADME, cell-based, Hepatocyte
[19] = In vivo drug metabolism in human urine assessed as 2-chloro-5-((3-hydroxy-2,2-dimethylpropanamido)methyl)-N-(1H-imidazol-2-yl)benzamide formation by HPLC-MS analysis; type: ADME, organism-based
[20] = Drug metabolism in dog hepatocytes assessed as N-carbamimidoyl-2-chloro-5-(pivalamidomethyl)benzamide formation at 2 uM after 4 hrs by LC-MS/MS analysis; type: ADME, cell-based, Canis lupus familiaris, Hepatocyte
[21] = Drug metabolism in rat hepatocytes assessed as 2-chloro-N-(4-hydroxy-1H-imidazol-2-yl)-5-(pivalamidomethyl)benzamide formation at 2 uM after 4 hrs by LC-MS/MS analysis; type: ADME, cell-based, Hepatocyte
[22] = In vivo drug metabolism in human urine assessed as N-(6-oxa-2,4-diazabicyclo[3.1.0]hex-3-en-3-yl)-2-chloro-5-(pivalamidomethyl)benzamide formation by HPLC-MS analysis; type: ADME, organism-based
[23] = In vivo drug metabolism in human urine assessed as N-carbamimidoyl-2-chloro-5-(pivalamidomethyl)benzamide formation by HPLC-MS analysis; type: ADME, organism-based
[24] = Drug metabolism in dog hepatocytes assessed as N-(6-oxa-2,4-diazabicyclo[3.1.0]hex-3-en-3-yl)-2-chloro-5-(pivalamidomethyl)benzamide formation at 2 uM after 4 hrs by LC-MS/MS analysis; type: ADME, cell-based, Canis lupus familiaris, Hepatocyte
[25] = Drug metabolism in Sprague-Dawley rat plasma assessed as 2-chloro-5-((3-hydroxy-2,2-dimethylpropanamido)methyl)-N-(1H-imidazol-2-yl)benzamide formation at 1000 mg/kg, po measured after 2 hrs post dose by LC/MS analysis; type: ADME, organism-based; conditions: in vivo
[26] = Drug metabolism in Beagle dog plasma assessed as 2-chloro-5-((3-hydroxy-2,2-dimethylpropanamido)methyl)-N-(1H-imidazol-2-yl)benzamide formation at 300 to 600 mg/kg, po measured after 2 hrs post dose by LC/MS analysis; type: ADME, organism-based, Canis lupus familiaris; conditions: in vivo
[27] = Drug metabolism in human hepatocytes assessed as 2-chloro-N-(4-hydroxy-1H-imidazol-2-yl)-5-(pivalamidomethyl)benzamide formation at 2 uM after 4 hrs by LC-MS/MS analysis; type: ADME, cell-based, Hepatocyte
[28] = In vivo drug metabolism in human plasma assessed as N-(6-oxa-2,4-diazabicyclo[3.1.0]hex-3-en-3-yl)-2-chloro-5-(pivalamidomethyl)benzamide formation HPLC-MS analysis; type: ADME, organism-based
[29] = Drug metabolism in rat hepatocytes assessed as 2-amino-5-((R)-1-(carboxymethylamino)-3-((2-(2-chloro-5-(pivalamidomethyl)benzamido)-1H-imidazol-5-yl)disulfanyl)-1-oxopropan-2-ylamino)-5-oxopentanoic acid formation at 2 uM after 4 hrs by LC-MS/MS analysis; type: ADME, cell-based, Hepatocyte
[30] = Drug metabolism in human hepatocytes assessed as 2-chloro-5-((3-hydroxy-2,2-dimethylpropanamido)methyl)-N-(1H-imidazol-2-yl)benzamide formation at 2 uM after 4 hrs by LC-MS/MS analysis; type: ADME, cell-based, Hepatocyte
[31] = Drug metabolism in dog hepatocytes assessed as 2-chloro-5-((3-hydroxy-2,2-dimethylpropanamido)methyl)-N-(1H-imidazol-2-yl)benzamide formation at 2 uM after 4 hrs by LC-MS/MS analysis; type: ADME, cell-based, Canis lupus familiaris, Hepatocyte
[32] = Drug metabolism in Sprague-Dawley rat plasma assessed as 2-chloro-N-(4,5-dihydroxy-4,5-dihydro-1H-imidazol-2-yl)-5-(pivalamidomethyl)benzamide formation at 1000 mg/kg, po measured after 2 hrs post dose by LC/MS analysis; type: ADME, organism-based; conditions: in vivo
[33] = Drug metabolism in Sprague-Dawley rat plasma assessed as 2-chloro-5-(pivalamidomethyl)benzoic acid formation at 1000 mg/kg, po measured after 2 hrs post dose by LC/MS analysis; type: ADME, organism-based; conditions: in vivo
[34] = In vivo drug metabolism in human plasma assessed as 2-chloro-5-((3-hydroxy-2,2-dimethylpropanamido)methyl)-N-(1H-imidazol-2-yl)benzamide formation HPLC-MS analysis; type: ADME, organism-based
[35] = Drug metabolism in Sprague-Dawley rat plasma assessed as 2-chloro-N-(4-hydroxy-1H-imidazol-2-yl)-5-(pivalamidomethyl)benzamide formation at 1000 mg/kg, po measured after 2 hrs post dose by LC/MS analysis; type: ADME, organism-based; conditions: in vivo
[36] = Drug metabolism in Beagle dog plasma assessed as 5-(aminomethyl)-2-chloro-N-(1H-imidazol-2-yl)benzamide formation at 300 to 600 mg/kg, po measured after 2 hrs post dose by LC/MS analysis; type: ADME, organism-based, Canis lupus familiaris; conditions: in vivo
[37] = Drug metabolism in Beagle dog plasma assessed as 2-chloro-N-(4-hydroxy-1H-imidazol-2-yl)-5-(pivalamidomethyl)benzamide formation at 300 to 600 mg/kg, po measured after 2 hrs post dose by LC/MS analysis; type: ADME, organism-based, Canis lupus familiaris; conditions: in vivo
[38] = In vivo drug metabolism in human plasma assessed as N-carbamimidoyl-2-chloro-5-(pivalamidomethyl)benzamide formation by HPLC-MS analysis; type: ADME, organism-based
[39] = Drug metabolism in human hepatocytes assessed as 2-chloro-N-(4,5-dihydroxy-4,5-dihydro-1H-imidazol-2-yl)-5-(pivalamidomethyl)benzamide formation at 2 uM after 4 hrs by LC-MS/MS analysis; type: ADME, cell-based, Hepatocyte
[40] = Drug metabolism in rat hepatocytes assessed as 2-chloro-N-(4,5-dihydroxy-4,5-dihydro-1H-imidazol-2-yl)-5-(pivalamidomethyl)benzamide formation at 2 uM after 4 hrs by LC-MS/MS analysis; type: ADME, cell-based, Hepatocyte

Drug metabolism [1]: Metabolite_Detected
Drug metabolism [2]: Metabolite_Detected
Drug metabolism [3]: Metabolite_Detected
Drug metabolism [4]: Metabolite_Detected
Drug metabolism [5]: Metabolite_Detected
Drug metabolism [6]: Metabolite_Notdetected
Drug metabolism [7]: Metabolite_Notdetected
Drug metabolism [8]: Metabolite_Detected
Drug metabolism [9]: Metabolite_Detected
Drug metabolism [10]: Metabolite_Notdetected
Drug metabolism [11]: Metabolite_Notdetected
Drug metabolism [12]: Metabolite_Detected
Drug metabolism [13]: Metabolite_Detected
Drug metabolism [14]: Metabolite_Detected
Drug metabolism [15]: Metabolite_Detected
Drug metabolism [16]: Metabolite_Detected
Drug metabolism [17]: Metabolite_Detected
Drug metabolism [18]: Metabolite_Notdetected
Drug metabolism [19]: Metabolite_Detected
Drug metabolism [20]: Metabolite_Detected
Drug metabolism [21]: Metabolite_Detected
Drug metabolism [22]: Metabolite_Notdetected
Drug metabolism [23]: Metabolite_Detected
Drug metabolism [24]: Metabolite_Notdetected
Drug metabolism [25]: Metabolite_Detected
Drug metabolism [26]: Metabolite_Detected
Drug metabolism [27]: Metabolite_Detected
Drug metabolism [28]: Metabolite_Notdetected
Drug metabolism [29]: Metabolite_Detected
Drug metabolism [30]: Metabolite_Detected
Drug metabolism [31]: Metabolite_Detected
Drug metabolism [32]: Metabolite_Detected
Drug metabolism [33]: Metabolite_Detected
Drug metabolism [34]: Metabolite_Detected
Drug metabolism [35]: Metabolite_Detected
Drug metabolism [36]: Metabolite_Detected
Drug metabolism [37]: Metabolite_Detected
Drug metabolism [38]: Metabolite_Detected
Drug metabolism [39]: Metabolite_Detected
Drug metabolism [40]: Metabolite_Detected
SMILES: CC(C)(C)C(=O)NCc1ccc(Cl)c(C(=O)Nc2ncc[nH]2)c1 [LY-3031207]
